Columns and labels:
[1] = system: differentiating ES-J1 cells; experiment: Apoptosis (TUNEL staining, cell death) in differentiating mouse ES cells incubated with ceramide analogs; assay type: cell-based; conditions: for number of TUNEL stained cells: 15 hours with 75 μM S16 or S18, or 35 μM C2-ceramide
Method: In vitro neural differentiation of mouse ES cells (ES-J1, ES-D3) followed a serum deprivation protocol as described previously (Hancock, et al., 2000 Biochem. Biophys. Res. Commun., 271: 418-421). The differentiation stages are outlined in FIG. 2. Briefly, ES cells were grown on gamma-irradiated feeder fibroblasts for four days in Knockout DMEM/15% Knockout serum replacement, supplemented with ESGRO (LIF; Chemicon; Cat No. ESG1106) at a concentration of 10^3 units/ml medium. ES cells were then grown for another four days on gelatin-coated bacterial culture dishes without a fibroblast feeder layer, and were then grown for three days in Knockout DMEM/15% heat-inactivated ES qualified Fetal Bovine Serum, supplemented with 10^3 units LIF per ml of medium. Upon trypsinization, ES cells were transferred to bacterial culture dishes without gelatin, and embryoid body (EB) formation was induced for four days in Knockout DMEM/10% heat-inactivated ES qualified FBS without LIF (EB4 stage). On the fifth day, floating and loosely attached EBs were rinsed off and transferred to tissue culture dishes. The EBs were allowed to attach to the tissue culture dish surface by incubation for another 24 hours in Knockout DMEM with 10% heat-inactivated ES qualified fetal bovine serum. Neural differentiation due to serum deprivation was induced by cultivation of the EBs for three days in DME/12 (50/50), supplemented with 1×N2 (Invitrogen/Life Technologies; Cat No. 17502, dilution of 1:100) but without serum (EB8 stage). Serum-deprived EBs were then trypsinized, plated on poly-L-ornithine/laminin-coated tissue culture dishes and grown for four days in DMEM/F12 (50/50), supplemented with N2 and 10 ng/ml FGF-2, but without serum. This incubation period is referred to as neuroprogenitor (NP) stage due to commitment of neuroepithelial precursor cells to neuroprogenitor cells, and/or due to the selective expansion of neural progenitor cells in the FGF-2 containing serum-free medium. These cells have committed during the EB stages and were expanded during the NP stage. NPs grown for 48 hours upon replating of trypsinized EBs were referred to as the NP2 stage. On the fifth day of NP formation, the medium was changed to Neurobasal (Invitrogen/Life Technologies; Cat No. 21103-049), with 5% heat-inactivated FBS, and the cells were incubated for another seven days. During this time, NPs fully differentiate to glial cells and neurons. Cells cultured for 24 hours or 96 hours upon changing the medium were referred to as the D1 or D4 stage, respectively.
ES cells were cultured and differentiated to the EB4, EB8, NP2, or D4 stage following the protocol as described above. The ceramide analog S18 was dissolved in ethanol at a concentration of 100 mM and then added to the cells at a final concentration of 75 μM in medium. The cells at the EB8 stage were incubated for 48 hours in the presence of the ceramide analog and were then transplanted into mouse brains.
Differentiating ES cells were grown on cover slips and fixed with 4% paraformaldehyde in phosphate-buffered saline (PBS). Fixed cells were permeabilized with 0.5% Triton X-100 in PBS for 5 minutes at room temperature and unspecific binding sites were saturated by incubation with 3% ovalbumin in PBS for 1 hour at 37° C. The cover slips were then incubated with 5 μg/ml primary antibody (anti-ceramide clone 15B4 mouse IgM, Alexis; anti-PAR-4 rabbit IgG, Santa Cruz; anti-PCNA rabbit IgG, Santa Cruz; anti-nestin clone 401 rat IgG, BD Pharmingen) in 0.1% ovalbumin/PBS, followed by incubation with the appropriate fluorescence-labeled secondary antibody (5 μg/ml Alexa 546 conjugated anti-mouse IgG, Molecular Probes; Alexa 488 conjugated anti-rabbit IgG, Molecular Probes, Cy3 conjugated anti-mouse IgM, Jackson) for 2 hours at 37° C. The nuclei were stained by treatment with 2 μg/ml Hoechst 33258 in PBS for 30 minutes at room temperature. […]

[2] = system: Oct-4; experiment: Oct-4 immunoblotting of EB8 stage cells incubated with S18; assay type: cell-based, mouse; conditions: EB8 stage cells incubated with 75 μM S18 for 24 hours
Method: In vitro differentiating ES cells at stage EB8 were incubated for […] with 75 μM S18, or 35 μM N-acyl sphingosine or other ceramide analogs. Protein was isolated from cells incubated with S18 for 24 hours and from untreated cells, separated by SDS-PAGE, and the expression of Oct-4 was analyzed by immunoblotting.

SMILES: CCCCCCCC/C=C\CCCCCCCC(=O)NC(CO)CO [S18, N-(2-hydroxy-1-(hydroxymethyl)ethyl)-oleoylamide]
- cell death ([1]; EB8 and NP2 stages, 20 hours with 75 μM S18): high degree of cell death
- number of TUNEL stained cells ([1]; EB8 stage): 45±10%
- number of TUNEL stained cells ([1]; NP2 stage): 70±10%
- effect on differentiated neurons (cell death) ([1]; differentiated neurons, 20 hours with 75 μM S18): unaffected
- Oct-4 immunostaining relative to untreated control cells [2]: 25%
- decrease in Oct-4 protein levels [2]: 75%

— patent US7445931B2, “Compositions and methods for enrichment of neural stem cells using ceramide analogs” (Bresagen, Inc., priority 2002, dated 2008)
